Patent US20240307497A1, “ADIPONECTIN ALONE OR IN COMBINATION WITH EXTRACORPOREAL PHOTOPHERESIS (ECP) FOR IMMUNE RELATED ADVERSE EVENTS OF IMMUNE CHECKPOINT INHIBITORS” (Mallinckrodt Pharmaceuticals Ireland Limited, priority 2022, published 2024)

Columns and labels:
[1] = test system: B16.F10 melanoma; test: Recall immunity experiment; type: in vivo, mice; conditions: T-cells of treated donors into secondary B16.F10 recipients
From the text: For evaluation of recall immunity, T-cell donor mice were challenged with 104 B16.F10 melanoma cells (i.v.) and treated with anti-PD1 (days 1, 3, 6, 9, 12), ECP (days 3, 7, 12) or steroids (days 3-12). Secondary recipients were sub-lethally irradiated with 6 Gy TBI and injected i.v. with 104 B16.F10 or 2×10^6 4434 melanoma cells. Splenic T-cells were enriched from T-cell donors on day 13 using the Pan T-cell Isolation Kit II (mouse, Miltenyi) and 1×105 T-cells were transplanted i.v. into secondary recipients on day 3 following tumor injection. Untreated melanoma mice served as control.

[2] = test system: BRAF^V600E-mutant 4434 melanoma; test: 4434 intravenous tumor model; type: in vivo, C57BL/6 mice; conditions: added to anti-PD1, second melanoma model
[3] = test system: s.c. B16.F10-OVA melanoma and MC38-OVA^dim colorectal tumors; test: OVA-transgenic subcutaneous tumor models; type: in vivo, mice; conditions: OT-I and CD8^+OVA-Dextramer^+ T-cells, d16
Experimental: C57BL/6 recipients were transplanted subcutaneously with 1×106 MC38-OVAdim or 0.5×10^6 MC38 cells into the shorn right flank. Recipients were treated i.p. with 0.2 mg ICI on days 1, 4, 8, 11, 15. ECP-treated splenocytes were transplanted (107; i.v.) on days 6, 11 and 15, daily steroids were given (i.p.) from days 6-15. On day 16, serum samples were harvested by retroorbital bleeding, the mice were euthanized and tumors were resected for further studies.
CD45.1 recipients were transplanted subcutaneously with 1×106 B16.F10-OVA cells into the shorn right flank and treated i.p. with 0.2 mg ICI on day 1, 4, 8, 11, 15. ECP-treated splenocytes were transplanted (107; i.v.) on days 6, 11 and 15, daily steroids were given (i.p.) from days 6-15. OT-I splenocytes (CD45.2) were activated on day 2 at a density of 2×10^6 cells/mL in the presence of 100 U/mL rmIL-2 (Peprotech) and 0.1 μg/mL OVA257-264 peptide (Sigma) in RPMI supplemented with 10% FCS, 1% P/S, 55 μM beta-Mercaptoethanol (Gibco) and 4 mM glutamine (Gibco). Splenocytes were washed on day 4 and replated with 100 U/mL rmIL-2 at 2×10^6 cells/mL. […]
For quantification of adiponectin concentrations in murine serum specimen, blood was harvested by retroorbital bleeding and serum was isolated by centrifugation. Adiponectin concentrations were measured using Adiponectin Mouse ELISA Kit (ThermoFisher) at 20,000-fold dilution.

[4] = test system: B16.F10 melanoma; test: B16.F10 intravenous/metastatic tumor model; type: in vivo, C57BL/6 mice; conditions: added to anti-PD1, vs anti-PD1-therapy alone
Experimental: C57BL/6 mice were intravenously injected with 10 000 B16.F10luc/GFP melanoma cells in the tail vein and treated with 0.2 mg ICI or the respective isotype control on day 1, 4, 8, 16 and 22. ECP-treated splenocytes were transplanted (107; i.v.) on days 13, 18, and 22, and daily steroids were given (i.p.) from days 13-22. Survival of the mice was monitored until day 60.

[5] = test system: B16.F10 melanoma with DSS/anti-PD1-mediated colitis; test: Combined colitis and B16.F10 tumor model; type: in vivo, C57BL/6 mice
Experimental: C57BL/6 mice were intravenously injected with 10 000 B16.F10luc/GFP melanoma cells in the tail vein and received 3% Dextran Sodium Sulfate (DSS colitis grade, 36-50 kDa; MP Biomedicals) in drinking water from day 9-12, followed by normal drinking water. Mice were treated with 0.2 mg ICI or the respective isotype control on days 1, 4, 8, 16 and 22. ECP-treated splenocytes were transplanted (107; i.v.) on days 13, 18 and 22, daily steroid was given (i.p.) from days 13-22. Mice were imaged with BLI on day 23, organs and serum were harvested on day 24.
Luciferin (D-luciferin, potassium salt (S)-4,5-Dihydro-2-(6-hydroxy-2-benzothiazolyl)-4-thiazolecarboxylic acid potassium salt; Biosynth) was dissolved in H2O and injected i.p. at a concentration of 150 μg/g body weight. After 10 minutes, the mice were imaged using an IVIS Lumina III in vivo imaging system (PerkinElmer) with an exposure time of 2 minutes. The luciferase signal was quantified in photons per second per mouse. Acquisition, analysis, and visualization of BLI were performed using Living Image Software (PerkinElmer).

SMILES: C[C@]12C=CC(=O)C=C1CC[C@@H]1[C@@H]2[C@@H](O)C[C@@]2(C)[C@H]1CC[C@]2(O)C(=O)CO [Steroids, Prednisolone]
- recall-immunity of transferred T-cells [1]: this was not the case
- survival [2]: findings were reproduced
- tumor-specific T-cells in the tumor microenvironment [3]: reduction of adoptively-transferred OT-I T-cells and endogenous CD8^+OVA-Dextramer^+ T-cells
- survival [4]: reduced survival
- colitis in melanoma-bearing mice ([5]; d23): similarly reduced
- tumor burden / control of tumor growth ([5]; luminescence imaging and melanoma transcripts in lungs): higher tumor burden
